In ChEMBL document CHEMBL5233242, “Dihydrofolate reductase inhibitors for use as antimicrobial agents” (Eur J Med Chem, 2020):
Converted amounts (≈) assume the structure as drawn. “And” between values parts separate entries of the source, which are not always exact repeats. Identical values can stand only once.

Key:
[1] = Inhibition of Staphylococcus aureus DHFR F98Y mutant
[2] = target: T1, Dihydrofolate reductase (Mycobacterium tuberculosis, UniProt P9WNX1)
T1 sequence (P9WNX1 whole entry): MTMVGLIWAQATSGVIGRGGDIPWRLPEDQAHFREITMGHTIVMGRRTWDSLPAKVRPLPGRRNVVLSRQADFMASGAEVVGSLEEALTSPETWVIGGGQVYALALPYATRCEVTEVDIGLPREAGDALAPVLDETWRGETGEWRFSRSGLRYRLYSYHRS
Description: Inhibition of Mycobacterium tuberculosis DHFR

[3] = tested on: Mycobacterium tuberculosis; experiment: Antibacterial activity against Mycobacterium tuberculosis H37Rv incubated for 7 days by resazurin dye based broth microdilution assay; assay type: functional; settings: 168 h, time 7 day
[4] = tested on: Mycobacterium tuberculosis; experiment: Antibacterial activity against Mycobacterium tuberculosis Erdman; assay type: functional
[5] = tested on: Mycobacterium tuberculosis; experiment: Antibacterial activity against Mycobacterium tuberculosis H37Rv; assay type: functional
[6] = tested on: Escherichia coli; experiment: Antibacterial activity against Escherichia coli ATCC 25922; assay type: functional
[7] = tested on: Escherichia coli; experiment: Antibacterial activity against Escherichia coli NR698; assay type: functional
[8] = Cytotoxicity against african green monkey Vero cells; assay type: toxicity, cell-based; settings: chlorocebus sabaeus
[9] = tested on: Staphylococcus aureus; experiment: Antibacterial activity against Staphylococcus aureus harboring DHFR F98Y mutant; assay type: functional
[10] = target: T2, Dihydrofolate reductase (Staphylococcus aureus, UniProt P0A017); experiment: Inhibition of wild type Staphylococcus aureus DHFR
[11] = tested on: Staphylococcus aureus; experiment: Antibacterial activity against Staphylococcus aureus ATCC 43300 harboring wild type DHFR; assay type: functional
[12] = target: T2, Dihydrofolate reductase; experiment: Inhibition of Staphylococcus aureus DHFR
[13] = tested on: Mycobacterium tuberculosis; experiment: Antibacterial activity against Mycobacterium tuberculosis H37Ra; assay type: functional
[14] = tested on: Staphylococcus aureus; experiment: Antibacterial activity against Staphylococcus aureus RN4220 harboring wild type DHFR; assay type: functional
[15] = tested on: Staphylococcus aureus; experiment: Antibacterial activity against methicillin resistant Staphylococcus aureus CCARM3167; assay type: functional
[16] = tested on: Staphylococcus aureus; experiment: Antibacterial activity against Staphylococcus aureus ATCC 29213 harboring wild type DHFR; assay type: functional
[17] = Inhibition of Pseudomonas aeruginosa DHFR
[18] = tested on: Pseudomonas aeruginosa; experiment: Antibacterial activity against Pseudomonas aeruginosa PA01; assay type: functional
[19] = tested on: Pseudomonas aeruginosa; experiment: Synergistic antibacterial activity against Pseudomonas aeruginosa PA01 assessed as fractional inhibitory concentration index in presence of quercetin; assay type: functional
[20] = tested on: Pseudomonas aeruginosa; experiment: Synergistic antibacterial activity against Pseudomonas aeruginosa PA01 assessed as fractional inhibitory concentration index in presence of myricetin; assay type: functional
[21] = tested on: Pseudomonas aeruginosa; experiment: Synergistic antibacterial activity against Pseudomonas aeruginosa PA01 assessed as fractional inhibitory concentration index in presence of gallic acid; assay type: functional
[22] = tested on: Pseudomonas aeruginosa; experiment: Synergistic antibacterial activity against Pseudomonas aeruginosa PA01 assessed as fractional inhibitory concentration index in presence of protocatechuic acid; assay type: functional

T2 sequence (P0A017 whole entry): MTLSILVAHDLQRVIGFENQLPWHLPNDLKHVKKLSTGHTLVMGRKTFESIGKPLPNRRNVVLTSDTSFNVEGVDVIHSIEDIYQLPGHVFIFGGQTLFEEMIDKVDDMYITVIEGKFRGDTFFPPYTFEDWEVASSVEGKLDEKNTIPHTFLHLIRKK

`CCC[C@H]1c2ccccc2C=NN1C(=O)/C=C/c1cc(Cc2cnc(N)nc2N)cc(OC)c1OC` showed an IC50 [1] of 0.0018 µM.
With `COc1ccc(-c2nc3ccccc3c(=O)[nH]2)cc1` the IC50 [2] was 49.1 µM and the MIC [3] was 125 µM and 31.5 µg/mL.
For `O=c1[nH]c(=O)c2c(ncn2Cc2ccccc2)[nH]1`, the IC50 [2] was 38.6 µM and the MIC [3] was 130 µM and 31.5 µg/mL.
In the case of `CCc1nc(N)nc(N)c1C#C[C@H](C)c1cc(OC)cc(-c2ccc(C(=O)O)cc2)c1`, the MIC [4] is reported as less than 0.072 µM and the MIC [5] is reported as less than 0.072 µM.
`CCc1nc(N)nc(N)c1C#C[C@@H](C)c1cc(OC)cc(-c2ccc(C(=O)O)cc2)c1` gave an MIC [6] of 24 µM (≈ 10 µg/mL) and an MIC [7] of 0.0075 µM (≈ 0.00312 µg/mL).
Molecule `CCc1nc(N)nc(N)c1C#CCc1cc(OC)cc(-c2ccc(C(=O)O)cc2)c1` has an MIC [4] of 1.24 µM (≈ 0.5 µg/mL) and an MIC [5] of 0.311 µM (≈ 0.125 µg/mL).
In the case of `Nc1nc(N)nc(-c2ccc(OCc3ccc(Cl)cc3)cc2)n1`, the CC50 [8] is reported as 464 µM and the MIC [5] is reported as 1.76 µM (≈ 0.577 µg/mL).
`CCCCc1nc(Cl)c(C2NC(=O)NC(C)=C2C(=O)Nc2ccc(F)cc2)[nH]1` (stereo not drawn) gave an IC50 [2] greater than 24.6 µM and an MIC [5] of 0.96 µM (≈ 0.39 µg/mL).
In the case of `CCc1nc(N)nc(N)c1C#C[C@H](C)c1cc(OC)cc(-c2ccncc2)c1`, the MIC [9] is reported as 14 µM (≈ 5.22 µg/mL), the IC50 [10] is reported as 0.015 µM and the IC50 [1] is reported as 0.51 µM. The MIC [11] was 0.874 µM (≈ 0.326 µg/mL).
In the case of `Cc1ccc(CN2C(=O)/C(=C3\SC(=S)N(C(=O)O)C3=O)c3ccccc32)cc1`, the IC50 [12] is reported as 0.46 µM.
For `COc1cc(-c2nc(N)nc(N)n2)ccc1OCc1ccc(F)cc1`, the CC50 [8] was 360 µM and the MIC [5] was 3.39 µM (≈ 1.16 µg/mL).
With `Nc1nc(N)c(-c2ccc(C(=O)Nc3cccc(OC(F)(F)F)c3)cc2)c(OCc2cncs2)n1` the MIC [13] was 12.4 µM and 6.25 µg/mL.
Molecule `COc1ccc(-c2nc(N)nc(N)n2)cc1Oc1ccc(Cl)cc1` has a CC50 [8] of 335 µM and an MIC [5] of 4.92 µM (≈ 1.69 µg/mL).
For `Nc1nc(N)c2c(ccc3c2ccn3Cc2ccc3ccccc3c2)n1`, the IC50 [2] was 0.00096 µM and the MIC95 [5] was 3.12 µM (≈ 1.06 µg/mL).
With `CC[C@@H]1CC[C@H]2C(CC)(CC)[C@H](O)CC[C@]2(CC)[C@@]12Cc1c(O)cc3c(c1O2)COC3=O` the MIC [14] was 72.3 µM (≈ 32 µg/mL), the IC50 [10] was 41.5 µM and the MIC [15] was 72.3 µM (≈ 32 µg/mL).
`CCc1nc(N)nc(N)c1C#C[C@@H](C)c1cc(OC)cc(-c2ccncc2)c1` showed an MIC [9] of 1.75 µM (≈ 0.653 µg/mL), an IC50 [10] of 0.018 µM and an IC50 [1] of 0.111 µM. It also gave an MIC [11] of 0.11 µM (≈ 0.0411 µg/mL).
`CCCc1cc(N)cc(N)c1Cc1cc(/C=C/C(=O)N2N=Cc3ccccc3C2C=C(C)C)c(OC)c(OC)c1` (stereo not drawn) gave an MIC [16] of 3.72 µM (≈ 2 µg/mL) and a Ki [10] of 0.004 µM.
In the case of `Nc1nc(N)c2cc(C(F)(F)F)ccc2n1`, the MIC99 [5] is reported as 207 µM (≈ 47.2 µg/mL).
In the case of `O=C(O[C@@H]1Cc2c(O)cc(O)cc2O[C@@H]1c1cc(O)c(O)c(O)c1)c1cc(O)c(O)c(O)c1` [EPIGALOCATECHIN GALLATE], the IC50 [2] is reported as 10.9 µM and the MIC [5] is reported as 4.25 µM (≈ 1.95 µg/mL).
Work on `O=C(O)c1cc(O)c(O)c(O)c1` [GALLIC ACID] yielded an IC50 [17] of 9620 µM.
With `O=c1c(O)c(-c2cc(O)c(O)c(O)c2)oc2cc(O)cc(O)c12` [MYRICETIN] the IC50 [17] was 520 µM and the MIC [18] was 1550 µM (≈ 493 µg/mL).
Work on `O=C(O)c1ccc(O)c(O)c1` [PROTOCATECHUIC ACID] yielded an IC50 [17] of 10700 µM.
With `O=c1c(O)c(-c2ccc(O)c(O)c2)oc2cc(O)cc(O)c12` [QUERCETIN] the IC50 [17] was 595 µM and the MIC [18] was 1650 µM (≈ 499 µg/mL).
For `Cc1cc(NS(=O)(=O)c2ccc(N)cc2)no1` [SULFAMETHOXAZOLE], the “fractional inhibitory concentration index (FICI)” value [19] was 0.38, the “fractional inhibitory concentration index (FICI)” value [20] was 0.38 and the “fractional inhibitory concentration index (FICI)” value [21] was 0.38. The IC50 [17] was 140 µM, the “fractional inhibitory concentration index (FICI)” value [22] was 0.25 and the MIC [18] was 500 µM (≈ 127 µg/mL).
Molecule `COc1cc(Cc2cnc(N)nc2N)cc(OC)c1OC` [TRIMETHOPRIM] has an IC50 [17] of 88.7 µM and an MIC [18] of 110 µM (≈ 31.9 µg/mL).
